Results on four compounds are retold here after patent publication US5521193A, “Benzimidazole compounds” (G. D. Searle & Co., priority 1995, dated 1996).

One experiment concerns the target T1, 5-HT3 receptor (Rattus norvegicus, UniProt P35563).
T1 construct: Brain cortices were obtained from male rats and a membrane fraction prepared by standard techniques; from tissue; host or cells: rat brain cortex membranes
T1 sequence (P35563 24-483): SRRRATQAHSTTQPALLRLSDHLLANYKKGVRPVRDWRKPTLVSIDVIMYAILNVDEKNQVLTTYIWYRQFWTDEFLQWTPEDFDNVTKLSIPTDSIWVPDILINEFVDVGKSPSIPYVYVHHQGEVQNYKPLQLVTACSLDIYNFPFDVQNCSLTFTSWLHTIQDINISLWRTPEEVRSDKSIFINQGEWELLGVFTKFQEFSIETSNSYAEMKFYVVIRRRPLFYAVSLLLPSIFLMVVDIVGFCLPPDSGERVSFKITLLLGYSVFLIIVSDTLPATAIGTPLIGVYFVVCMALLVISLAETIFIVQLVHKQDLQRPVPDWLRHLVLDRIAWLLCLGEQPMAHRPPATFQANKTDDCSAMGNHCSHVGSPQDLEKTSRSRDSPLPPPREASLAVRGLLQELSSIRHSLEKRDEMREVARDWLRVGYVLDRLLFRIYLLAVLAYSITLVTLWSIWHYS
The experiment in a line: Serotonin (5-HT3) radioligand binding, [3H]-GR65630, rat brain cortex membranes. Particulars: Ki, [3H]-GR65630 0.2 nM; 60 min, 22° C. As to the method: GR65630 binds to the 5-HT3 receptor. Brain cortices were obtained from male rats and a membrane fraction prepared by standard techniques. 0.04 mg of membrane prep was incubated with 0.2 nM […] for 60 minutes at 22° C. […] Membranes were filtered and washed times and the filters were counted to determine [3H]-GR65630 specifically bound. Kilpatrick G. J., Jones B. J. and Tyers M. B. Identification and distribution of 5-HT3 receptors in rat brain using radioligand binding assay. Nature, 330 : 746-748, 1987.

The next experiment addresses T2, 5-HT4 receptor (Rattus norvegicus, UniProt Q62758).
T2 construct: One 2 cm segment of intrathoracic esophagus proximal to the diaphragm was removed from male rats; from tissue; host or cells: rat intrathoracic oesophagus, inner tunica muscularis mucosae
The experiment in a line: biochemical. The settings on record: carbachol (3 μM)-contracted rat esophagus TMM; 37° C.; tissues from 5 rats; read-out: 5-HT4 Agonism (Rat TMM) In Vitro Assay: EC50 Values. Here is the method: (§1) 5-HT4 agonist activity was determined in the in vitro rat tunice muscularis mucosae (TMM) assay. (Baxter et el., Naunyn Schmied Arch. Pharmacol, 1991, 343,439). The 5-HT4 agonist or antagonist activity and/or 5-HT3 antagonist activity of the compounds of the invention herein, can be determined by the assays as described herein, without undue experimention.
Agonist activity was determined utilizing relaxation of carbachol-contracted rat tunica muscularis mucosae. One 2 cm segment of intrathoracic esophagus proximal to the diaphragm was removed from male rats, weighing approximately 300 gm, and the outer muscle layers removed. The inner tunica muscularis mucosa was mounted under 0.2-0.3 g of tension in a tissue bath containing oxygenated Tyrode's solution at 37° C. […] Following a 30 min equilibrium period, tissues were isometrically contracted with carbachol (3 μM) to obtain a tonic contraction. A stable plateau was obtained within 20 min when test compound was added cumulatively to relax the muscle strip. EC50 values were obtained for each agonist in tissues from 5 rats.

The subject of another experiment is 5-HT3. The experiment is described as follows: Bezold-Jarisch Reflex (inhibition of 5-HT-induced bradycardia in anesthetized mice). The format is in vivo. Particulars: i.p., 30 min before 5-HT 0.25 mg/kg i.v.; >50 percent reduction in bradycardic response vs vehicle considered significant; pentobarbital anesthetized mice. As to the method:
as §1
The compound to be evaluated was administered i.p. (mg/kg) to a group of 3 mice. […] A greater than 50 percent (>50) reduction in the bradycardic response relative to vehicle-treated control mice was considered significant.
This method has been described by Saxena, P. R. and Lawang, A., Arch. Int. Pharmacodyn., 277:235-252, 1985.
The assay results for the compounds of the present invention and their Minimum Effective Dose (MED) and the reference compounds and their MEDs are recorded in Table I.

T2 sequence (Q62758 whole entry): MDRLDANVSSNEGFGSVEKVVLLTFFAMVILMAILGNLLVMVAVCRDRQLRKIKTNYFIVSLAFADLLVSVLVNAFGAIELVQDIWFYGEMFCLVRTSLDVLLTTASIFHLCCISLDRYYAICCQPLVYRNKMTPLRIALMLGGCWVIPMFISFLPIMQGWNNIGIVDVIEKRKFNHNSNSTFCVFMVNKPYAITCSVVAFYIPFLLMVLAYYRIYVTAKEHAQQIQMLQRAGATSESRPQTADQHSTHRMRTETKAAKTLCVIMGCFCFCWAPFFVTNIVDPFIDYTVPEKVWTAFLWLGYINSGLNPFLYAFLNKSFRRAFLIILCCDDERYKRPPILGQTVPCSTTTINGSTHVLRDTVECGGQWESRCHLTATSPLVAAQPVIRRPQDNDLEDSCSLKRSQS

Consider `CC(C)n1c(=O)n(C(=O)NCCC23CCCN2CCC3)c2ccccc21` [Example 13, N-[2-(hexahydro-7aH-pyrrolizin-7a-yl)ethyl]-2,3-dihydro-3-(1-methylethyl) 2-oxo-1H-benzimidazole-1-carboxamide], for which the inhibitory constant (Ki) (in general, the dissociation constant of the complex between target and ligand, obtained from inhibition or displacement) at 5-HT3 receptor was 120 nM. Moreover, the EC50 (in general, the midpoint of the concentration-response curve) at 5-HT4 receptor was 179 nM. Besides, in the experiment with 5-HT3, the “Minimum Effective Dose (MED)” value was 10 mg/kg.
Turning to `CC[C@@H](CO)NC(=O)[C@@H]1C=C2c3cccc4c3c(cn4C)C[C@H]2N(C)C1` [methylsergide], the “Minimum Effective Dose (MED)” value in the experiment with 5-HT3 is above 10 mg/kg.
On the same count and under the same terms, the same measure for `CC(C)n1c(=O)n(C(=O)NC[C@H]2CCN3CCC[C@H]23)c2ccccc21` (relative stereo) [Example 23, cis-N-[(hexahydro-1H-pyrrolizin-1-yl)methyl]-2,3-dihydro-3-(1-methylethyl) 2-oxo-1H-benzimidazole-1-carboxamide]: 1 mg/kg; for `CN1C2CCCC1CC(NC(=O)c1nn(C)c3ccccc13)C2` (stereo not drawn) [BRL-43694]: 0.05 mg/kg.
